According to patent US11324741B2, “Methods for treating visceral fat conditions” (Orexigen Therapeutics, Inc., priority 2008, dated 2022):

Columns and labels:
Assay type in all cases: in vivo, human
Subjects [1] = test: Metabolic parameters (Example 2, Table 5); details: Table 5, Metabolic Parameters
Protocol: (§1) Subjects (n=117) received one of six treatments: two placebos (P+P), placebo and naltrexone (P+Nal), bupropion and placebo (Bup+P), bupropion and naltrexone 48 mg (Bup+Nal 48), bupropion and naltrexone 32 mg (Bup+Nal 32), or bupropion and naltrexone 16 mg (Bup+Nal 16).
(§2) The average change in visceral body mass is shown in FIG. 1 for the four treatments. […] Statistically significant improvements were also observed in several important metabolic parameters including: plasma glucose, serum insulin and plasma triglycerides.

Subjects [2] = test: DEXA body scan and multi-slice CT scan of body fat and visceral fat at baseline and 6 months (Example 2); design: LS Mean (SE)^, Visceral Adipose Mass / Change from Baseline Mean (SD), Visceral Adipose Mass / LS Mean (SE)^, Total Body Adipose Mass / Change from Baseline Mean (SD), Total Body Adipose Mass: unit not given here; details: for Change from Baseline Mean (SD), Total Body Adipose Mass: DEXA; for Change from Baseline Mean (SD), Total Body Adipose Mass / Change from Baseline Mean (SD), Visceral Adipose Mass: baseline to 6 months; for Change in Waist Circumference (cm): Table 2, titled Baseline Weight, BMI and Weight Circumference; for Change in Waist Circumference (%) vs. placebo: Table 2; for LS Mean (SE)^, Total Body Adipose Mass / LS Mean (SE)^, Visceral Adipose Mass: change from baseline; for Change from Baseline Mean (SD), Visceral Adipose Mass: multi-slice CT
Protocol: as §1
The mass of selective visceral loss can be calculated based on total fat and the volume of visceral fat.
as §2
The percentage of this decrease was similar in magnitude in both visceral and overall adipose tissue.

[3] = test system: healthy, non-diabetic, obese subjects; test: Double-blind, placebo-controlled multi-center trial, 24 weeks of treatment (Example 1); details: for Fasting Glucose / Insulin (mcU/mL) / Triglyceride / Waist (cm) / Weight (%): obese subjects; for Weight (%): naltrexone 48 mg qd, bupropion 400 mg, or 32/400 mg combination; for Visceral fat (%): subset with DEXA and multislice CT scans
Protocol: A double-blind, placebo-controlled multi-center trial was conducted with 285 healthy, non-diabetic, obese subjects. The subjects were administered either bupropion 200 mg bid, placebo (P), naltrexone 48 mg qd (N1), or bupropion 400 mg with naltrexone 32 mg qd (BN2). 182 subjects completed 24 weeks of treatment. A subset of 60 subjects had dual energy X-ray absorptometry (DEXA) and multislice CT scans to measure body fat, lean tissue and visceral fat (American Diabetes Association Annual Meeting 2007).
The groups were matched at baseline.

| SMILES | Plasma Glucose (Subjects [1]) [mg/dL] | Serum Insulin (uU/mL) (Subjects [1]) | Triglycerides (Subjects [1]) [mg/dL] | Change from Baseline Mean (SD), Total Body Adipose Mass (Subjects [2]) | Change in Waist Circumference (cm) (Subjects [2]) | Change in Waist Circumference (%) vs. placebo (Subjects [2]) [%] | LS Mean (SE)^, Total Body Adipose Mass (Subjects [2]) | LS Mean (SE)^, Visceral Adipose Mass (Subjects [2]) | Change from Baseline Mean (SD), Visceral Adipose Mass (Subjects [2]) | Fasting Glucose [3] [mg/dL] | Insulin (mcU/mL) [3] [mcU/mL] | Triglyceride [3] [mg/dL] | Waist (cm) [3] [cm] | Weight (%) [3] [%] | Visceral fat (%) [3] [%] |
| --- | --- | --- | --- | --- | --- | --- | --- | --- | --- | --- | --- | --- | --- | --- | --- |
| CC(NC(C)(C)C)C(=O)c1cccc(Cl)c1 (stereo not drawn) [Bupropion, bupropion] | 3.5 ± 1.5 | −0.5 ± 1.1 | -18.4 ± 9.0 | −4.1 | 1.9 | 1.8 | −2.6 | 0.2 | −2.3 | 3.5 ± 1.5 | −0.5 ± 1.1 | -18.4 ± 9.0 | −2.9 ± 6.0 | −3.14 ± 0.7 | −2.3 ± 5.1 |
| O=C1CC[C@@]2(O)[C@H]3Cc4ccc(O)c5c4[C@@]2(CCN3CC2CC2)[C@H]1O5 [Naltrexone, naltrexone] | 3.4 ± 1.7 | 1.7 ± 1.3 | -17.6 ± 10.4 | −3.2 | −1.5 | −1.4 | −1.5 | 3.5 | −0.1 | 3.4 ± 1.7 | 1.7 ± 1.3 | -17.6 ± 10.4 | −3.8 ± 12.7 | −1.74 ± 0.9 | −0.1 ± 8.7 |
